This is an account of results in a melting point compilation (Tetko et al.; mined from patent text by program, amines drawn as free bases though some values may be those of a salt).

A value given as a limit tells only on which side of the number the result lay.

On to `CCCc1nc2c(N)nc(C)c(C)c2n1CCCC(C)=O`, for which the melting point (commonly the temperature of the solid-liquid transition) was in the range of 148 to 150 °C. The result for `COc1cc(C(=O)C(C)C)cc([N+](=O)[O-])c1O` reads 85 to 87 °C. As to `CC(C)(C)OC(=O)Nc1cc(N2CCSCC2)c(I)cc1[N+](=O)[O-]`, the melting point lay in the range of 132 to 134 °C.

`CC(C)SC1=C(Cl)CSS1=O` (stereo unspecified) came in with a melting point of 60 °C. The figure for `CCOC(=O)c1cnoc1-c1cc(Cl)cc(Cl)c1` is 50 to 51 °C; for `CCOC(=O)c1cn2c(-c3nn(C)c(OC(F)F)c3Cl)c(F)cc(Cl)c2n1` it is 140 to 143 °C.

Turning to `Nc1cc(Cl)c(S)cc1S(N)(=O)=O`, the melting point lay in the range of 192 to 195 °C.

For `CCCCc1nc(Cl)c(C=O)n1Cc1ccc(-c2ccccc2-c2n[nH]c(=O)o2)cc1`, the melting point fell in the range of 178 to 179 °C. The figure for `CC12CC(F)C3C(CCC4=CC(=O)CCC43C)C1CCC2=O` (stereo unspecified) is 162 to 164 °C. The figure for `COc1ccc(C(=O)c2cccc(C)c2Cl)cc1` is 64.7 to 65.8 °C; for `O=C(Nc1ccc(-n2ccnc2)cc1)NC12CC3CC(CC(C3)C1)C2` it is 272 to 276 °C; for `Cc1cc(N2CCN(Cc3ccccc3)C2=O)sc1C(=O)NCc1cccnc1` it is 130 to 131 °C.

In turn, `N#Cc1ccc(Cn2cc(C=C3C(=O)NC(=O)NC3=O)c3ccccc32)cc1` came in with a melting point of over 300 °C. The result for `COC(=O)c1ccc(C(=O)C=CN(C)C)cc1Cl` reads 92 to 96 °C; that for `O=C(O)C(CC1CCCCC1)c1ccc(OCc2ccccn2)cc1` (stereo unspecified), 100 to 103 °C. The figure for `Cc1c[nH]c(-c2ccnc(NC(=O)c3ccccc3)c2)n1` is 133 to 135 °C; for `CN1C(=O)Cc2ccsc2S1(=O)=O` it is 136 to 137 °C; for `COC(=O)CCc1cc2cc(Cl)ccc2n1S(=O)(=O)c1cc(C)cc(C)c1` it is 146 to 150 °C. The result for `COC(=O)c1ccc(OC(Cc2ccccc2)C(=O)OC)cc1` (stereo unspecified) reads 96 to 98 °C; that for `CCOC(=O)[C@@H](O)[C@@H]1OC(=O)c2cc(OC)c(OCc3ccccc3)cc21`, 138 to 140 °C. Molecule `CCOC(=O)COc1cc(C)c(C)c2c1CC(Br)C2=O` (stereo unspecified) displayed a melting point of 71 to 73 °C. The result for `CC(=O)Nc1nc(O)c2cc(C=C(C)c3ccc(C(=O)O)cc3)cnc2n1` reads over 250 °C. The result for `CC(=O)c1ccccc1Nc1nc(Nc2ccc3c(c2)CCCC(=O)N3C)ncc1Cl` reads 215 to 217 °C; that for `Cc1onc(OCC(=O)NCCO[N+](=O)[O-])c1Br`, 87 to 88 °C. The figure for `COc1c(C)c2c(c(OS(=O)(=O)c3ccc(C)cc3)c1CC1=C(C)C(O)CC1)C(=O)OC2` (stereo unspecified) is 108 to 112 °C; for `Cc1ccnc(C(C#N)Sc2nc(N)cc(Cl)n2)c1` (stereo unspecified) it is 145 to 146 °C; for `Cc1nc(N2CCC(NCCC(F)(F)F)C2=O)sc1C(=O)NCc1ccc(F)cc1` (stereo unspecified) it is 142 to 143 °C. In turn, `O=C(O)CS(=O)(=O)CC(F)(F)F` had a melting point of 145 °C. The result for `O=C(O)[C@H](Cc1cccc(OC(F)(F)C(F)F)c1)[C@@H](O)c1cccc(F)n1` (racemic) reads 103 to 104 °C; that for `CN(C)c1ccc2nc[nH]c(=O)c2c1`, 233 to 236 °C; that for `CCCN(CCC)C1COc2cccc(C(=O)C3CC3)c2C1` (stereo unspecified), 100 to 102 °C.

In turn, `Cc1cc(-c2cccc(C(F)(F)F)c2)c2nc(OC(F)F)cnc2c1` showed a melting point of 103 to 104 °C. Consider `CC(C)(C)OC(=O)CCc1ccc(C[C@H](NC(=O)OC(C)(C)C)C(=O)O)cc1`, for which the melting point lay in the range of 88.5 to 90 °C. The figure for `Cc1ccc(C(=O)C2(n3ccnc3)CC2)cc1` is 88 to 90 °C. The figure for `O=C(Cc1ccc(Cl)c(Cl)c1)N1CCNC2CCCCC21` (stereo unspecified) is 119 to 120 °C; for `COC(=O)c1ccc2c(c1)C(SCCO)c1ccccc1CO2` (stereo unspecified) it is 128 to 130 °C; for `COC(=O)C(C)(C)Nc1cc(Cl)ccc1[N+](=O)[O-]` it is 87 to 89 °C. For `O=C(O)Cn1c(=O)c2cc(Cl)ccc2n(Cc2ccc(Br)cc2F)c1=O`, the melting point was determined as 189 °C. The figure for `CCC(=O)NCCCSc1ccncc1` is 50 to 51 °C; for `CSc1c2c3c(n1C)C(=O)C(=O)C(Cl)=C3NCC2` it is 205 °C.

Consider `O=C(N[C@@H]1CCC[C@H]1O)C(O)=CC(=O)c1cc(Cc2ccc(F)cc2)cn(Cc2ccccc2F)c1=O`, for which the melting point is 67 to 69 °C. The result for `CC(C#N)(C(=O)NC1CCCCC1)c1ccccc1` (stereo unspecified) reads 76 to 78 °C. Molecule `COC(=O)Cc1c(C)c2ccc(O)cc2oc1=O` gave a melting point of 194 to 196 °C. In turn, `CCc1c(C(F)(F)F)nn(-c2ccc(S(N)(=O)=O)nc2)c1-c1ccc(-c2cncs2)c(F)c1` gave a melting point of 189 to 191 °C. The figure for `CCOC(=O)CON1C(=O)C(=O)N(c2ccccc2SC)C1=S` is 112 to 114 °C; for `CCCCCCCCCCCCCCCCOc1ccc(-c2nc(CC(=O)O)c(OCC)o2)cc1` it is 89 to 91 °C; for `CN1CCNC(=O)N1c1cc(Cl)cc(Cl)c1` it is 150 to 151 °C. The result for `N#CC=C1CCN(c2ccc(N3C[C@@H](CN=[N+]=[N-])OC3=O)cc2F)CC1` reads 112 to 114 °C; that for `NC(=O)CCC(=NNC(N)=S)c1ccccc1`, 186 to 188 °C; that for `COc1cc(C(=O)N2CCc3nnc(NN)cc3C2)cc(OC)c1OC`, 194 to 197 °C. The result for `COc1ccc2c(c1)CCC(=COC(=O)c1ccccc1)C2=O` reads 128 to 130 °C; that for `O=[N+]([O-])c1ccc(F)c(I)c1F`, 46.1 to 47.5 °C.

In the case of `FC(F)c1cc(-c2ccc(C(F)(F)F)cc2)nc2c(I)ncn12`, the melting point came to 159 °C.

Take `COC(=O)CCCc1cc2nc(Cl)ccc2n1S(=O)(=O)c1cccc(-c2nccs2)c1`: the melting point lay in the range of 82 to 86 °C. For `O=C1CC(=O)C2CCC1C2`, the melting point lay within 129 to 130 °C. The result for `Cc1cc2c(-c3cccc(CCC(=O)O)c3)c(CC(=O)Nc3ccc(F)cc3C(F)(F)F)c(=O)oc2cc1Cl` reads 212 to 214 °C. The figure for `NC(=O)c1cc(I)cc(I)c1O` is 206 °C; for `Nc1c(Cl)ccc2c1C(=O)CO2` it is 160 °C. The result for `Oc1cc(-c2ccc(Cl)cc2)nc2ccc(F)cc12` reads over 350 °C; that for `Cn1ccnc1Sc1ccc(I)cc1Cl`, 99 to 101 °C; that for `Nc1ccc(Br)cc1CC(F)(F)F`, 100 to 101 °C. As to `N#CC(=NO)c1cccc(Oc2ccccc2)c1`, the melting point lay in the range of 124 to 125 °C. The result for `COC(=O)c1cc(-c2ccc(S(C)(=O)=O)cc2)n(-c2ccccc2)n1` reads 190 to 193 °C; that for `c1ccc(CN2CCc3[nH]c4cc(-c5ccccc5)ccc4c3CC2)cc1`, 176 to 177 °C; that for `COCC1=C(c2ccccc2)C(=O)N(C(C)(C)C(=O)OC(C)(C)C)CO1`, 65 to 67 °C. The figure for `Oc1cc(Cl)cc(Br)c1` is 66 to 68 °C; for `O=C(NC1CCCCC1)C12CC3CC(CC(C3)C1)C2` it is 199 to 200 °C.

The molecule `CN(C)C(=O)N(C)C(=O)N1CCN(c2ccc(F)cc2)CC1` had a melting point of 83 to 84 °C. The figure for `N#CC(C#N)=C1N(CCCN2CCOCC2)CCN1C1CCN(C2CC2)CC1` is 104 to 106 °C; for `COc1nc(C)nc(NC(=NS(=O)(=O)c2cccnc2)SC)n1` it is 146 to 149 °C; for `CC(C)CN(Cc1csc(C(C)C)n1)C(=O)N[C@H](C(=O)N[C@@H](Cc1ccccc1)C[C@H](O)[C@H](Cc1ccccc1)NC(=O)OCc1cncs1)C(C)C` it is 60 to 61 °C. The figure for `Cn1c(Nc2c(Cl)cccc2Cl)nc2ccc3c(c21)C(=O)NC(C)(C)N3` is 238 to 239 °C. The figure for `CN1CCN(c2nc3c(c(NCCO)n2)SCCC3)CC1` is 162 to 164 °C.

Molecule `NS(=O)(=O)c1cccc(-c2cn(-c3nc(-c4ccc(F)cc4)cc(C(F)(F)F)n3)cn2)c1` yielded a melting point of 260 °C. `COC(=O)CSCc1sccc1S(=O)(=O)N(C)c1cccc2cc(-c3nccs3)[nH]c12` came in with a melting point of 126 °C. The figure for `CCOc1c(N)c2c(c(OCC)c1OCC)C(C1c3cc(OC)c(OC)cc3CCN1C)OC2=O` (stereo unspecified) is 143 °C; for `COC(=O)C(CC(C)C)NCC(=O)n1c(=O)cc(-c2ccccc2)c2cc(C(c3ccc(Cl)cc3)n3ccnc3)ccc21` (stereo unspecified) it is 118 °C. The result for `c1cnc(-c2cccnc2)nc1` reads 51 to 52 °C; that for `CCN1CCN=C1c1ccccc1C(=O)c1ccc(Cl)cc1`, 132 to 134 °C; that for `CC(C)(C)c1cc(SCO)cc(C(C)(C)C)c1O`, 79 to 82 °C.

As for `CN1CN(C(=O)c2c(F)cccc2F)C(=O)N(c2ccc(S(=O)C(F)F)cc2F)C1` (stereo unspecified), the melting point is 50 to 55 °C. The result for `CCCCCCCCC=CCCCCCCCC(=O)NCCCSc1ccncc1` reads 50 to 50.5 °C.

For the molecule `C=CCc1ccccc1OC(CC)C(=O)OC1CC(O)C=C2C=CC(C)C(CCC3CC(O)CC(=O)O3)C21` (mixture of isomers), the melting point lay within 143 to 145 °C. The result for `COc1ccc(-c2c(Cl)c(CN3CCCC3)nc3sc4c(c23)CCN(Cc2ccccc2)C4)cc1OC` reads 157 to 158 °C. The result for `CCN(Cc1cc(Cl)ccc1OCC1CC1)c1ccc(C(=O)O)nn1` reads 119 to 120 °C; that for `Cc1cccc(-c2nc3ccc(OCCCl)cc3n2Cc2ccccc2)c1`, 88 °C. The result for `O=C(O)c1c2c(nc3ccc(Br)cc13)-c1ccc(-c3ccccc3F)cc1CCC2` reads over 300 °C. `CCNC(=O)ON(C(C)=O)C(=O)NCC` had a melting point of 84 to 86 °C.

`Cc1c(C)c(N2CCN(c3ccc(OC(F)(F)F)cc3)CC2)c(C)c2c1OC(C)(C)C2` gave a melting point of 216 to 219 °C. The figure for `COc1cc2c(c(OC)c1OC)C[C@@H](N1CCN(C(=O)C=Cc3ccccc3)CC1)[C@@H]2O` (relative stereo) is 162 to 163 °C. The result for `CC(=O)OCCCCCCSCC(=O)c1ccc2c(c1)CC(=O)N2` reads 86 to 87 °C.
